Holding throughout (assay): growth of human tumour cells (NCI), 48 h
Test [1] concerns 786-0.
In test [2] the test system is HCT-15.
Test [3] relates to HOP-92.
Test [4] relates to M14.
Test [5] concerns MCF7.
Test [6] concerns MDA-MB-231.
Test [7] deals with MDA-MB-435.
Test [8] deals with NCI-H23.
In test [9] the test system is NCI-H522.
The test system of test [10] is NCI/ADR-RES.
In test [11] the test system is OVCAR-4.
Test [12] deals with PC-3.
The subject of test [13] is SK-MEL-2.
The subject of test [14] is SN12C.
In test [15] the test system is SR.
The subject of test [16] is SW-620.
In test [17] the test system is HL-60.
Test [18] has as its system HT-29.
The test system of test [19] is NCI-H226.

Four compounds from ChEMBL document CHEMBL1201862, “PubChem BioAssay data set” (2004) can be followed below.

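48-hour exposure; five concentrations; linearly interpolated endpoints. GI50 = concentration required for 50% inhibition of growth.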 The source made the active and inactive calls. Rule as the data show it: active = GI50 up to about 1.1 µM and inactive = higher. Starred links: 1 amine or outer side, 2 acyl side, 3 side chain; linkers in the order of their positions; H or OH if unused. Residues, ends and D or L forms follow the SMILES beside them. *: point of attachment. γGlu = O=C(O)[CH](CCC(=O)[*:2])N[*:1]; NHOH = ON*

Consider `CCc1n[nH]c(=O)n1/N=C/c1ccccc1O`, for which the GI50 in [1] was > 100 µM (inactive); in test [2], above 100 µM; in test [3], > 100 µM (inactive); in [4], > 100 µM (inactive); in test [5] it was > 100 µM (inactive); in [6] it was > 100 µM (inactive). Also, the GI50 in [7], in test [8], in test [9], in [10], in test [11] and in test [12] was > 100 µM (inactive) throughout. For the same compound, the GI50 in test [13], in [14], in test [15] and in test [16] was > 100 µM (inactive) each time.

`CCOC(=O)CNC(=O)C(CCC(=O)NO)NC(=O)CCC(N)C(=O)O` (configuration not stated) (γGlu-Glu(NHOH)-Gly-OEt; configuration not given here): the GI50 in test [1] is > 100 µM (inactive); in test [2], above 100 µM; in [17] it was > 100 µM (inactive); in [3] it was > 100 µM (inactive); in test [18] it was > 100 µM (inactive); in [4], > 100 µM (inactive). The GI50 in test [5], in test [6], in [7], in test [19], in test [8] and in test [9] was > 100 µM (inactive) each time. Besides, the GI50 in [10], in test [11], in test [12], in [13], in test [14] and in [16] was > 100 µM (inactive) each time.

For `COC(=O)[C@@H]1C[C@H]2[C@H](c3ccccc3Br)[C@@H](OC(C)=O)[C@@H](OCc3ccccc3)ON2O1`, the GI50 in test [1] was > 100 µM (inactive); in test [2] it was above 100 µM; in [18] it was > 100 µM (inactive); in test [4] it was > 100 µM (inactive); in test [5] it was > 100 µM (inactive); in test [6] it was > 100 µM (inactive). The GI50 in [7] was > 100 µM (inactive); in [8], > 100 µM (inactive); in test [10], > 100 µM (inactive); in [11], > 100 µM (inactive); in [12] it was > 100 µM (inactive); in [13], 69.2 µM (inactive). Besides, the GI50 in test [14], in test [15] and in [16] was > 100 µM (inactive) each time.

`Cc1cc(C)nc(NS(=O)(=O)c2ccc(NN=c3c4ccccc4n(C)c4ccccc34)cc2)n1`: the GI50 in test [1] is 30.2 µM (inactive); in [2] it was 32.7 µM; in test [17], 28.9 µM (inactive); in [3], 15.6 µM (inactive); in test [18], 33.3 µM (inactive); in [4] it was 35.5 µM (inactive). The GI50 in [5] was 17.3 µM (inactive); in [6] it was 21.3 µM (inactive); in test [7], 23.8 µM (inactive); in test [19], 40.2 µM (inactive); in test [8], 25.6 µM (inactive); in test [9], 13.8 µM (inactive). Also, the GI50 in test [10] is 38.2 µM (inactive); in test [11], 23.6 µM (inactive); in test [12], 22 µM (inactive); in test [13] it was 15.1 µM (inactive); in test [14], 42.8 µM (inactive); in [16], 26.1 µM (inactive).
